molecular target: T1, human capsaicin receptor (Homo sapiens, UniProt Q8NER1); experiment: Calcium mobilization assay, determination of antagonist activity (Example 6); format: cell-based; conditions: Table II; IC50 determined as described in Example 6
T1 construct: pBK-CMV expression construct encoding the full length human capsaicin receptor; expressed in transfected cells
Summary of the method: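 Antagonism measured as inhibition of capsaicin-evoked (final concentration = EC50, from an 8-point 1 nM–3 μM curve) Fluo-3 calcium signal in stable hVR1-HEK293 cells. Test compounds at 1–5 μM final, 0.5–6 h dark preincubation at room temperature. IC50 = concentration giving 50% reduction versus agonist-only response.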

T1 sequence (Q8NER1 whole entry): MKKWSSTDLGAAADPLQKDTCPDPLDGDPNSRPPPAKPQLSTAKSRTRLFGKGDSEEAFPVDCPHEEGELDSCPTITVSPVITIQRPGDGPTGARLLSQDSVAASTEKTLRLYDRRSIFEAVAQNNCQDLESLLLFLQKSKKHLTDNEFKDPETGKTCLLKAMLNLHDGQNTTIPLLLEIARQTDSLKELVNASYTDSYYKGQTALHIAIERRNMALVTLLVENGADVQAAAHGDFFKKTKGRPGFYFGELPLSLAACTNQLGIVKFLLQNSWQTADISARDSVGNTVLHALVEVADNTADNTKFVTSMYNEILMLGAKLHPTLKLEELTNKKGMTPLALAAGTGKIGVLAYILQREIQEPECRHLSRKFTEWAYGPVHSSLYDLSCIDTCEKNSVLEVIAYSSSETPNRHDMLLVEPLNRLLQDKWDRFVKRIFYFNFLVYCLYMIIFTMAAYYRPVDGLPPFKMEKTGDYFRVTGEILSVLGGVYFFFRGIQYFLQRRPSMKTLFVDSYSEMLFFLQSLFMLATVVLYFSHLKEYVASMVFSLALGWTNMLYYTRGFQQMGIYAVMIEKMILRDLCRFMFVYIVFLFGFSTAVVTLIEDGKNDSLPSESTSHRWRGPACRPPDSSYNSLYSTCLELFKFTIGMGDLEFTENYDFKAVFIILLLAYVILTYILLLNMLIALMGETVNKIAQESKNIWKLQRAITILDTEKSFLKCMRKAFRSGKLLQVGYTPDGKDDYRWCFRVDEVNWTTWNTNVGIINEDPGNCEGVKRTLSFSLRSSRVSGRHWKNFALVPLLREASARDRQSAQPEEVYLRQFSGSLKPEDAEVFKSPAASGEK

Compound	IC50
COC[C@@H]1CCCN1c1nc(-c2ccc(F)c(Cl)c2)cc(N2CCN(c3ncccc3C(F)(F)F)CC2)n1 [Example 550, 4-(3-chloro-4-fluorophenyl)-2-[(2S)-2-(methoxymethyl)pyrrolidin-1-yl]-6-{4-[3-(trifluoromethyl)pyridin-2-yl]piperazin-1-yl}pyrimidine]	≤ 1 µM
O=C(O)[C@@H]1CCCN1c1nc(-c2ccc(F)c(Cl)c2)cc(N2CCN(c3ncccc3C(F)(F)F)CC2)n1 [Example 552, 1-(4-(3-chloro-4-fluorophenyl)-6-{4-[3-(trifluoromethyl)pyridin-2-yl]piperazin-1-yl}pyrimidin-2-yl)-L-proline]	≤ 1 µM
Fc1ccc(-c2cc(N3CCN(c4ncccc4C(F)(F)F)CC3)nc(OCC3CC3)n2)cc1Cl [Example 553, 4-(3-chloro-4-fluorophenyl)-2-(cyclopropylmethoxy)-6-{4-[3-(trifluoromethyl)pyridin-2-yl]piperazin-1-yl}pyrimidine]	≤ 1 µM
COCCOc1nc(-c2ccc(F)c(Cl)c2)cc(N2CCN(c3ncccc3C(F)(F)F)CC2)n1 [Example 554, 4-(3-chloro-4-fluorophenyl)-2-(2-methoxyethoxy)-6-{4-[3-(trifluoromethyl)pyridin-2-yl]piperazin-1-yl}pyrimidine]	≤ 1 µM
COCCCOc1nc(-c2ccc(F)c(Cl)c2)cc(N2CCN(c3ncccc3C(F)(F)F)CC2)n1 [Example 555, 4-(3-chloro-4-fluorophenyl)-2-(3-methoxypropoxy)-6-{4-[3-(trifluoromethyl)pyridin-2-yl]piperazin-1-yl}pyrimidine]	≤ 1 µM
Fc1ccc(-c2cc(N3CCN(c4ncccc4C(F)(F)F)CC3)nc(OCC3CCCO3)n2)cc1Cl (stereo not shown) [Example 556, 4-(3-chloro-4-fluorophenyl)-2-(tetrahydrofuran-2-ylmethoxy)-6-{4-[3-(trifluoromethyl)pyridin-2-yl]piperazin-1-yl}pyrimidine]	≤ 1 µM
Fc1ccc(-c2cc(N3CCN(c4ncccc4C(F)(F)F)CC3)nc(OC3CCOCC3)n2)cc1Cl [Example 557, 4-(3-chloro-4-fluorophenyl)-2-(tetrahydro-2H-pyran-4-yloxy)-6-{4-[3-(trifluoromethyl)pyridin-2-yl]piperazin-1-yl}pyrimidane]	≤ 1 µM
Fc1ccc(-c2cc(N3CCN(c4ncccc4C(F)(F)F)CC3)nc(OCCN3CCCC3)n2)cc1Cl [Example 558, 4-(3-chloro-4-fluorophenyl)-2-(2-pyrrolidin-1-ylethoxy)-6-{4-[3-(trifluoromethyl)pyridin-2-yf]piperazin-1-yl}pyrimidine]	≤ 1 µM
CN1CCCC(Oc2nc(-c3ccc(F)c(Cl)c3)cc(N3CCN(c4ncccc4C(F)(F)F)CC3)n2)C1 (stereo not shown) [Example 559, 4-(3-chloro-4-fluorophenyl)-2-[(1-methylpiperidin-3-yl)oxy]-6-{4-[3-(trifluoromethyl)pyridin-2-yl]piperazin-1-yl}pyrimidine]	≤ 1 µM
Fc1ccc(-c2cc(N3CCN(c4ncccc4C(F)(F)F)CC3)nc(OCC3CCNC3)n2)cc1Cl (stereo not shown) [Example 560, 4-(3-chloro-4-fluorophenyl)-2-(pyrrolidin-3-ylmethoxy)-6-{4-(3-(trifluoromethyl)pyridin-2-yl]piperazin-1-yl}pyrimidine]	≤ 1 µM
Fc1ccc(-c2cc(N3CCN(c4ncccc4C(F)(F)F)CC3)nc(OC3CCNCC3)n2)cc1Cl [Example 561, 4-(3-chloro-4-fluorophenyl)-2-(piperidin-4-yloxy)-6-{4-[3-(trifluoromethyl)pyridin-2-yl]piperazin-1-yl}pyrimidine]	≤ 1 µM
CN(C)C1CCN(c2nc(-c3ccc(F)c(Cl)c3)cc(N3CCN(c4ncccc4C(F)(F)F)CC3)n2)C1 (stereo not shown) [Example 562, 1-(4-(3-chloro-4-fluorophenyl)-6-{4-[3-(trifluoromethyl)pyridin-2-yl]piperazin-1-yl}pyrimidin-2-yl)-N,N-dimethylpyrrolidin-3-amine]	≤ 1 µM
CCN(CC)C1CCN(c2nc(-c3ccc(F)c(Cl)c3)cc(N3CCN(c4ncccc4C(F)(F)F)CC3)n2)CC1 [Example 563, 1-(4-(3-chloro-4-fluorophenyl)-6-{4-[3-(trifluoromethyl)pyridin-2-yl]piperazin-1-yl}pyrimidin-2-yl)-N,N-diethylpiperidin-4-amine]	≤ 1 µM
CN1CCC(N(C)c2nc(-c3ccc(F)c(Cl)c3)cc(N3CCN(c4ncccc4C(F)(F)F)CC3)n2)C1 (stereo not shown) [Example 564, 4-(3-chloro-4-fluorophenyl)-N-methyl-N-(1-methylpyrrolidin-3-yl)-6-{4-[3-(trifluoromethyl)pyridin-2-yl]piperazin-1-yl}pyrimidin-2-amine]	≤ 1 µM
CN1CCC(N(C)c2nc(-c3ccc(F)c(Cl)c3)cc(N3CCN(c4ncccc4C(F)(F)F)CC3)n2)CC1 [Example 565]	≤ 1 µM

Now from value to compound:

IC50	Compound
≤ 1 µM	CCN(CC)CCN(C)c1nc(-c2ccc(F)c(Cl)c2)cc(N2CCN(c3ncccc3C(F)(F)F)CC2)n1 [Example 566, N-1-(4-(3-chloro-4-fluorophenyl)-6-{4-[3-(trifluoromethyl)pyridin-2-yl]piperazin-1-yl}pyrimidin-2-yl)-N-2-,N-2-diethyl-N-1-methylethane-1,2-diamine]
≤ 1 µM	NC(=O)[C@@H]1CCCN1c1nc(-c2ccc(F)c(Cl)c2)cc(N2CCN(c3ncccc3C(F)(F)F)CC2)n1 [Example 567, 1-(4-(3-chloro-4-fluorophenyl)-6-{4-[3-(trifluoromethyl)pyridin-2-yl]piperazin-1-yl}pyrimidin-2-yl)-L-prolinamide]
≤ 1 µM	NC1CCN(c2nc(-c3ccc(F)c(Cl)c3)cc(N3CCN(c4ncccc4C(F)(F)F)CC3)n2)C1 (stereo not shown) [Example 568, 1-(4-(3-chloro-4-fluorophenyl)-6-{4-[3-(trifluoromethyl)pyridin-2-yl]piperazin-1-yl}pyrimidin-2-yl)pyrrolidin-3-amine]
≤ 1 µM	NC1CCN(c2nc(-c3ccc(F)c(Cl)c3)cc(N3CCN(c4ncccc4C(F)(F)F)CC3)n2)CC1 [Example 569, 1-(4-(3-chloro-4-fluorophenyl)-6-{4-[3-(trifluoromethyl)pyridin-2-yl]piperazin-1-yl}pyrimidin-2-yl)piperidin-4-amine]
≤ 1 µM	CC(=O)NC1CCN(c2nc(-c3ccc(F)c(Cl)c3)cc(N3CCN(c4ncccc4C(F)(F)F)CC3)n2)C1 (stereo not shown) [Example 570, N-[1-(4-(3-chloro-4-fluorophenyl)-6-{4-[3-(trifluoromethyl)pyridin-2-yl]piperazin-1-yl}pyrimidin-2-yl)pyrrolidin-3-yl]acetamide]
≤ 1 µM	CC(=O)NC1CCN(c2nc(-c3ccc(F)c(Cl)c3)cc(N3CCN(c4ncccc4C(F)(F)F)CC3)n2)CC1 [Example 571, N-[1-(4-(3-chloro-4-fluorophenyl)-6-{4-[3-(trifluoromethyl)pyridin-2-yl]piperazin-1-yl}pyrimidin-2-yl)piperidin-4-yl]acetamide]

same assay, conditions: determined as described in Example 6 (calcium mobilization, antagonist activity); Table II

IC50	Compound
≤ 1 µM	CS(=O)(=O)N1CCN(c2nc(-c3ccc(F)c(Cl)c3)cc(N3CCN(c4ncccc4C(F)(F)F)CC3)n2)CC1 [Example 572, 4-(3-chloro-4-fluorophenyl)-2-[4-(methylsulfonyl)piperazin-1-yl]-6-{4-[3-(trifluoromethyl)pyridin-2-yl]piperazin-1-yl)pyrimidine]
≤ 1 µM	CCN(CC)c1nc(-c2ccc(F)c(Cl)c2)cc(N2CCN(c3ncccc3C(F)(F)F)CC2)n1 [Example 573, 4-(3-chloro-4-fluorophenyl)-N,N-diethyl-6-{4-[3-(trifluoromethyl)pyridin-2-yl]piperazin-1-yl}pyrimidin-2-amine]
≤ 1 µM	FC(F)(F)c1cccnc1N1CCN(c2cc(-c3ccccc3)nc(N3CCOCC3)n2)CC1 [Example 574, 4-(4-phenyl-6-{4-[3-(trifluoromethyl)pyridin-2-yl]piperazin-1-yl}pyrimidin-2-yl)morpholine]
≤ 1 µM	Cc1cc(-c2cc(N3CCN(c4ncccc4C(F)(F)F)CC3)nc(N3CCOCC3)n2)ccn1 [Example 575, 4-(4-(2-methylpyridin-4-yl)-6-{4-[3-(trifluoromethyl)pyridin-2-yl]piperazin-1-yl}pyrimidin-2-yl)morpholine]
≤ 1 µM	Cc1cc(-c2cc(N3CCN(c4ncccc4C(F)(F)F)CC3)nc(N3CCOCC3)n2)ccc1F [Example 576, 4-(4-(4-fluoro-3-methylphenyl)-6-{4-[3-(trifluoromethyl)pyridin-2-yl]piperazin-1-yl}pyrimidin-2-yl)morpholifle]
≤ 1 µM	CCOc1cc(-c2cc(N3CCN(c4ncccc4C(F)(F)F)CC3)nc(N3CCOCC3)n2)ccn1 [Example 577, 4-(4-(2-ethoxypyridin-4-yl)-6-{4-[3-(trifluoromethyl)pyridin-2-yl]piperazin-1-yl}pyrimidin-2-yl)morpholine]
≤ 1 µM	CN(c1nc(-c2ccc(F)c(Cl)c2)cc(N2CCN(c3ncccc3C(F)(F)F)CC2)n1)C1CCCCC1 [Example 578, 4-(3-chloro-4-fluorophenyl)-N-cyclohexyl-N-methyt-6-{4-[3-(trifluoromethyl)pyridin-2-yl]piperazin-1-yl}pyrimidin-2-amine]
≤ 1 µM	CC(C)Nc1nc(-c2ccc(F)c(Cl)c2)cc(N2CCN(c3ncccc3C(F)(F)F)CC2)n1 [Example 580, 4-(3-chloro-4-fluorophenyl)-N-isopropyl-6-{4-[3-(trifluoromethyl)pyridin-2-yl]piperazin-1-yl}pyrimidin-2-amine]
≤ 1 µM	O=C1NCC2(CCN(c3nc(-c4ccc(F)c(Cl)c4)cc(N4CCN(c5ncccc5C(F)(F)F)CC4)n3)CC2)O1 [Example 581, 8-(4-(3-chloro-4-fluorophenyl)-6-{4-[3-(trifluoromethyl)pyridin-2-yl]piperazin-1-yl}pyrimidin-2-yl)-1-oxa-3,8-diazaspiro[4.5]decan-2-one]
≤ 1 µM	Fc1ccc(-c2cc(N3CCN(c4ncccc4C(F)(F)F)CC3)nc(OCc3ccccc3C(F)(F)F)n2)cc1F [Example 582, 4-(3,4-difluorophenyl)-2-{[2-(trifluoromethyl)benzyl]oxy}-6-{4-[3-(trifluoromethyl)pyridin-2-yl]piperazin-1-yl}pyrimidine]
